From ChEMBL document CHEMBL2028040, “Malaria Box”

How the values were obtained:
Plasmodium falciparum [1] = assay: MMV: Inhibition of Plasmodium falciparum 3D7 at 5uM compound concentration.; type: functional
[2] = tested on: Trypanosoma brucei rhodesiense; assay: MMV: Inhibition of Trypanosoma brucei rhodesiense (STIB 900) (HAT in vitro).; type: functional, organism-based
Plasmodium falciparum [3] = assay: MMV: Inhibition of Plasmodium falciparum K1 (EC50).; type: functional, organism-based
Trypanosoma cruzi = assay: MMV: Inhibition of Trypanosoma cruzi (Tulahuen C4 LacZ) (Chagas in vitro).; type: functional, organism-based
Plasmodium falciparum [4] = assay: MMV: Inhibition of Plasmodium falciparum 3D7 (EC50).; type: functional, organism-based
[5] = MMV: Cytotoxicity against human fibroblasts (MRC-5) cells.; conditions: MRC-5 cells (human fibroblasts)
Leishmania infantum = assay: MMV: Inhibition of Leishmania infantum (MHOM/MA/BE/67) in vitro.; type: functional, organism-based
[6] = tested on: Trypanosoma brucei brucei; assay: MMV: Inhibition of Trypanosoma brucei brucei (Squib 427) (HAT in vitro).; type: functional, organism-based
Plasmodium falciparum [7] = assay: MMV: Inhibition of Plasmodium falciparum 3D7 at 2uM compound concentration.; type: functional

| IC50 [2] | EC50 (Plasmodium falciparum [3]) | IC50 (Trypanosoma cruzi) | EC50 (Plasmodium falciparum [4]) | IC50 (Leishmania infantum) | IC50 [6] | Compound | inhibition at 5 µM (Plasmodium falciparum [1]) | IC50 [5] | inhibition at 2 µM (Plasmodium falciparum [7]) |
| --- | --- | --- | --- | --- | --- | --- | --- | --- | --- |
| 15.3 µM | 0.172 µM | 15.4 µM | 0.135 µM | 16.2 µM | 16.1 µM | CSC1=NC(=Nc2c(C)cccc2C)C2(CCC(C(C)(C)C)CC2)N1c1ccc(Cl)cc1 (stereo unspecified) | 96% | > 32 µM |  |
| 15.8 µM | 0.268 µM | 14 µM | 0.548 µM | 16 µM | 14.8 µM | Oc1ccccc1CN1CCC2(CCCN(Cc3ccccc3F)C2)C1 (stereo unspecified) | 98% | > 32 µM |  |
| 1.85 µM | 0.375 µM | 12.3 µM | 0.53 µM | 10.1 µM | 4.23 µM | COc1cccc(O)c1CN1CCC2(CCCN(Cc3ccc(F)cc3)C2)C1 (stereo unspecified) | 95% | > 32 µM |  |
| 7.36 µM | 1.17 µM | > 32 µM | 1.51 µM | 16.2 µM | 16.9 µM | CCOC(=O)C1=C(C)N=c2sc(=Cc3ccccc3O)c(=O)n2C1c1ccc(OC)c2ccccc12 (stereo unspecified) | 97% | > 32 µM |  |
| 13.3 µM | 0.344 µM | > 32 µM | 0.154 µM | > 32 µM | > 32 µM | CCOC(=O)C1=C(c2ccccc2)N=c2sc(=Cc3cc(C)n(-c4ccc(F)cc4)c3C)c(=O)n2C1c1cccc(OC)c1OC (stereo unspecified) | 94% | > 32 µM |  |
| 17.5 µM | 0.0362 µM | > 32 µM | 0.0238 µM | > 32 µM | > 32 µM | COc1cccc(C=Cc2nc(=O)c3ccccc3o2)c1OC | 96% | > 32 µM |  |
| 3.8 µM | 1.61 µM | 15.4 µM | 0.663 µM | 6.35 µM | 3.09 µM | COc1ccc(CNC2CCN(c3ccc(NC(=O)c4cccc(Cl)c4)cc3)CC2)cc1OC | 97% | > 32 µM |  |
| 13.9 µM | 0.687 µM | 11.6 µM | 0.168 µM | 16.1 µM | 13.7 µM | COc1ccc(C=C2SC(=N)N(c3ccccc3OC)C2=O)cc1 | 97% | 4.49 µM |  |
| 2.9 µM | 0.705 µM | 5.48 µM | 0.814 µM | > 32 µM | 15 µM | COc1ccccc1C(=O)ON=C(N)Cc1cccc2ccccc12 | 97% | 13.9 µM |  |
| 1.15 µM | 0.54 µM | 2.62 µM | 0.782 µM | > 32 µM | 4.09 µM | COc1cc(C(=O)ON=C(N)Cc2cccc3ccccc23)cc(OC)c1OC | 99% | 5.66 µM |  |
| > 32 µM |  | > 32 µM | 4 µM | > 32 µM | > 32 µM | CCCCc1c(C)nc2c(OC)cccc2c1O |  | > 32 µM | 92% |

The remaining lines, values behind:

| Compound | IC50 [2] | EC50 (Plasmodium falciparum [3]) | IC50 (Trypanosoma cruzi) | EC50 (Plasmodium falciparum [4]) | IC50 (Leishmania infantum) | IC50 [6] | inhibition at 5 µM (Plasmodium falciparum [1]) | IC50 [5] | inhibition at 2 µM (Plasmodium falciparum [7]) |
| --- | --- | --- | --- | --- | --- | --- | --- | --- | --- |
| CN(C)CCNc1cc(-c2ccccc2)nc2ccccc12 | 4.03 µM |  | 7.26 µM | 4 µM | 6.35 µM | 3.91 µM |  | 25.4 µM | 92% |
| CCOc1ccc(N2C(N)=NC(N)=NC2(C)C)cc1 | > 32 µM |  | > 32 µM |  | > 32 µM | > 32 µM |  | 21.1 µM | 92% |
| Cc1ccc(N2C(=O)C3C(C2=O)C2(c4ccccc4)C(=O)C3(c3ccccc3)C(c3ccccc3)=C2c2ccccc2)cc1 (stereo unspecified) | > 32 µM | 0.396 µM | > 32 µM | 0.282 µM | > 32 µM | > 32 µM | 98% | > 32 µM |  |
| CCCCCCc1cc2cc(-c3csc(C=Cc4ccccc4)n3)c(=O)oc2cc1O | 8.87 µM | 0.143 µM | 19.1 µM | 0.387 µM | > 32 µM | 13.6 µM | 92% | > 32 µM |  |
| O=C(NC(c1ccccc1)c1ccc2cccnc2c1O)c1ccccc1 (stereo unspecified) | < 0.125 µM | 1.45 µM | < 0.125 µM | 1.17 µM | 16.6 µM | < 0.125 µM | 95% | 11.8 µM |  |
| COc1ccc(C2=C(c3ccc(OC)cc3)C3(c4ccccc4)C(=O)C2(c2ccccc2)C2C(=O)N(c4ccc(C)cc4)C(=O)C23)cc1 (stereo unspecified) | > 32 µM | 0.188 µM | > 32 µM | 0.148 µM | > 32 µM | > 32 µM | 98% | > 32 µM |  |
| Cc1cc(Nc2cccc(F)c2)nc(NCc2ccccc2)n1 | 4.03 µM |  | 0.919 µM |  | 2.57 µM | 7.58 µM |  | > 32 µM | 97% |
| CCOC(=O)c1c(C)n(-c2ccc(Cl)cc2)c2ccc(OC(=O)C=Cc3ccccc3)cc12 | 4.32 µM | 0.659 µM | 11.6 µM | 0.215 µM | > 32 µM | 16.1 µM | 97% | 18.5 µM |  |
| OCCNc1nc(Nc2ccc(Cl)c(Cl)c2)nc2ccccc12 | 2.06 µM |  | 2.58 µM | 0.59 µM | 3.01 µM | 3.33 µM |  | 4.96 µM | 94% |
| Cc1cc(C=C2SC(=Nc3ccccc3)N(C3CCCC3)C2=O)c(C)n1-c1ccc(Cl)cc1 | > 32 µM | 0.666 µM | > 32 µM | 0.263 µM | 25.4 µM | > 32 µM | 97% | > 32 µM |  |
| c1ccc(CNc2nc(Nc3ccccc3)nc3ccccc23)cc1 | 3.05 µM |  | 1.46 µM | 0.776 µM | 0.707 µM | 3.36 µM |  | 3.36 µM | 95% |
| CN(C)c1ccc(N2C(N)=NC(N)=NC2(C)C)cc1 | > 32 µM |  | > 32 µM |  | > 32 µM | > 32 µM |  | > 32 µM | 95% |
| CCOc1ccc2nc(C)cc(Nc3ccc(Br)cc3)c2c1 | 3.35 µM |  | 4.22 µM | 0.48 µM | 4.06 µM | 3.6 µM |  | 3.17 µM | 96% |
| CCCCCCc1cc2cc(-c3nc4ccccc4[nH]3)c(=Nc3ccccc3C)oc2cc1O | 12.8 µM | 0.149 µM | > 32 µM | 0.551 µM | > 32 µM | 17 µM | 96% | > 32 µM |  |
| COc1ccc2sc(N(Cc3cccnc3)C(=O)c3ccc(C#N)cc3)nc2c1 | 16.1 µM |  | 5.5 µM |  | > 32 µM | > 32 µM |  | > 32 µM | 89% |
| O=C(Nc1cccc(C2=NCCN2)c1)Nc1cccc(C2=NCCN2)c1 [IMIDOCARB] | 0.265 µM | 1.38 µM | > 32 µM | 1.01 µM | > 32 µM | 19.6 µM | 83% | > 32 µM |  |
| CN(C)c1ccc(C(O)(c2ccc(N(C)C)cc2)c2ccc(N(C)C)cc2)cc1 [METHYLROSANILINE] | < 0.125 µM | 0.5 µM | < 0.125 µM | 0.255 µM | < 0.125 µM | < 0.125 µM | 96% | 0.354 µM |  |
